Legend:
[1] = tested on: normal NK cells expanded with K562-aAPC; experiment: drug sensitivity score (DSS) (DSS units); higher = more sensitive; extreme values may be limits of the assay; conditions: 72 h; IL-2 2.5 ng/mL
Protocol: (§1)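 Drug sensitivity and resistance testing on K562-aAPC-expanded normal NK cells: 5 concentrations (10-fold steps over a 10,000-fold range), 72 h at 37 °C, viability by CellTiter-Glo normalised to DMSO and benzethonium chloride controls; DSS from the fitted curve.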

[2] = tested on: normal primary NK cells, pool 3 (3 donors) (IL-2 2.5 ng/mL); experiment: as above; conditions: 72 h
[3] = tested on: YT (IL-2 2.5 ng/mL); experiment: as above; conditions: 72 h
[4] = tested on: KAI3 (IL-2 2.5 ng/mL); experiment: as above; conditions: 72 h
[5] = tested on: NKL (IL-2 2.5 ng/mL); experiment: as above; conditions: 72 h
[6] = tested on: IMC-1 (IL-2 20 ng/mL); experiment: as above; conditions: 72 h
[7] = tested on: DERL-7 (IL-2 2.5 ng/mL); experiment: as above; conditions: 72 h
[8] = tested on: normal primary NK cells, pool 1 (3 donors), resting (IL-2 0 ng/mL); experiment: as above; conditions: 72 h
[9] = tested on: NK-92 (IL-2 2.5 ng/mL); experiment: as above; conditions: 72 h
[10] = tested on: NK-YS (IL-2 2.5 ng/mL); experiment: as above; conditions: 72 h
[11] = tested on: KHYG-1 (IL-2 2.5 ng/mL); experiment: as above; conditions: 72 h
[12] = tested on: SNK-6 (IL-2 2.5 ng/mL); experiment: as above; conditions: 72 h
[13] = tested on: normal primary NK cells, pool 1 (3 donors) (IL-2 2.5 ng/mL); experiment: as above; conditions: 72 h
[14] = tested on: normal primary NK cells, pool 2 (3 donors) (IL-2 2.5 ng/mL); experiment: as above; conditions: 72 h
[15] = tested on: normal primary NK cells, pool 3 (3 donors) (IL-2 2.5 ng/mL); experiment: percent inhibition of viability; higher = more inhibition; conditions: 72 h
[16] = tested on: YT (IL-2 2.5 ng/mL); experiment: as above; conditions: 72 h
[17] = tested on: KAI3 (IL-2 2.5 ng/mL); experiment: as above; conditions: 72 h
[18] = tested on: NKL (IL-2 2.5 ng/mL); experiment: as above; conditions: 72 h
[19] = tested on: IMC-1 (IL-2 20 ng/mL); experiment: as above; conditions: 72 h
[20] = tested on: DERL-7 (IL-2 2.5 ng/mL); experiment: as above; conditions: 72 h
[21] = tested on: normal primary NK cells, pool 1 (3 donors), resting (IL-2 0 ng/mL); experiment: as above; conditions: 72 h
[22] = tested on: NK-92 (IL-2 2.5 ng/mL); experiment: as above; conditions: 72 h
[23] = tested on: NK-YS (IL-2 2.5 ng/mL); experiment: as above; conditions: 72 h
[24] = tested on: KHYG-1 (IL-2 2.5 ng/mL); experiment: as above; conditions: 72 h
[25] = tested on: SNK-6 (IL-2 2.5 ng/mL); experiment: as above; conditions: 72 h
[26] = tested on: normal primary NK cells, pool 1 (3 donors) (IL-2 2.5 ng/mL); experiment: as above; conditions: 72 h
[27] = tested on: normal primary NK cells, pool 2 (3 donors) (IL-2 2.5 ng/mL); experiment: as above; conditions: 72 h
[28] = tested on: normal NK cells expanded with K562-aAPC; experiment: as above; conditions: 72 h, IL-2 2.5 ng/mL
Protocol: as §1

NC(=O)N1CCC(CC(=O)N2CCC([C@H]3c4ncc(Br)cc4CCc4cc(Cl)cc(Br)c43)CC2)CC1 [Lonafarnib] (max concentration tested 10000 nM)
Conditions	drug sensitivity score
[1]	1.95
[2]	4.3
[3]	6.47
[4]	6.28
[5]	4.21
[6]	1.66
[7]	9.51
[8]	11.6
[9]	7.81
[10]	12.2
[11]	13
[12]	6.27
[13]	8.02
[14]	6.83

percent inhibition of viability [%]
Conditions	1 nM	10 nM	100 nM	1000 nM	10000 nM
[15]	-2.09	0.34	2.3	9.06	52.3
[16]	-2.94	-2.27	4.51	28.1	60.1
[17]	-4.05	0.27	9.71	30.5	38.6
[18]	-11.3	-10.4	-4.09	19.2	37.3
[19]	-4.85	-3.21	-6.32	-1.06	36.6
[20]	3.48	0.48	5.47	44.5	73
[21]	-4.29	2.54	32.3	35.8	90
[22]	-13	-12.8	-0.32	39.8	57.2
[23]	-6.93	-2.78	13.2	56.3	79.7
[24]	-3.98	-2.08	3.33	67.6	83.9
[25]	3.51	1.11	8.58	31.1	33.3
[26]	-10.4	-3.37	6.08	19.4	88.9
[27]	-4.12	2.21	1.62	17.7	73.4
[28]	-2.48	-4.83	1.81	10.5	25.2

N#Cc1ccc(C(c2ccc(C#N)cc2)n2cncn2)cc1 [Letrozole] (max concentration tested 10000 nM)
Conditions	drug sensitivity score
[1]	0
[2]	0
[3]	1.23
[4]	0.38
[5]	0.42
[6]	0
[7]	0
[8]	0
[9]	0.25
[10]	0
[11]	0
[12]	0
[13]	0
[14]	0

percent inhibition of viability [%]
Conditions	1 nM	10 nM	100 nM	1000 nM	10000 nM
[15]	2.09	-1.11	10.7	-4.55	-7.8
[16]	0.65	-5.8	1.61	-1.29	30.5
[17]	-6.48	-8.29	2.19	2.56	14.1
[18]	-6.26	-9.07	3.52	11.2	10.6
[19]	-2.09	-2.27	-1.74	2.28	8.91
[20]	3.92	-4.41	0.76	-20.5	-8.07
[21]	-3.46	12.2	4.99	1.86	7.77
[22]	-10.2	-8	-6.61	-5.03	17.5
[23]	-8.7	-6.85	-4.19	1.26	9.67
[24]	-7.78	-5.69	-3.04	-1.07	5.03
[25]	14.2	-31.4	-25.2	-23.6	-28.2
[26]	-10.5	0.24	0.58	3.66	5.55
[27]	-3.07	-5.44	6.01	0.12	-0.44
[28]	-3.92	-7.21	-4.76	2.21	7.69

CN1CCN(c2ccc3nc(-c4c(N)c5c(F)cccc5[nH]c4=O)[nH]c3c2)CC1 [Dovitinib] (max concentration tested 10000 nM)
Conditions	drug sensitivity score
[1]	0
[2]	0.36
[3]	0
[4]	1.71
[5]	4.18
[6]	0
[7]	0.77
[8]	4.36
[9]	0
[10]	0.43
[11]	0
[12]	0
[13]	0
[14]	0.35

percent inhibition of viability [%]
Conditions	1 nM	10 nM	100 nM	1000 nM	10000 nM
[15]	-13.4	-9.6	-2.56	-3.69	18.9
[16]	1.17	0.22	2.9	5.68	1.67
[17]	2.03	-0.28	0.82	4.98	25.2
[18]	-10	-6.08	-3.28	8.58	51.6
[19]	-9.28	-4.03	-5.76	-6.55	-7.61
[20]	-0.26	-2.47	-0.75	1.93	19.1
[21]	-23.8	-2.86	19.4	10.6	53.9
[22]	-5.95	-5.28	-3.15	-3.74	0.3
[23]	-1.41	-0.72	1.54	8.71	13.5
[24]	-5.15	-3.54	0.13	3.06	2.7
[25]	-4.17	-5.09	-18.2	-14	-35.3
[26]	-15.6	-11.3	-2.48	-5.56	9.92
[27]	-7.55	-5.64	-7.93	-6.84	19.6
[28]	-2.16	-2.71	2.91	-0.42	3.96

From the supplement of paper PMC5908809
